From ChEMBL document CHEMBL3994622, “Design and synthesis of new RAF kinase-inhibiting antiproliferative quinoline derivatives. Part 2: Diarylurea derivatives” (Eur J Med Chem, 2017)

Legend:
Assay type in all cases: functional
NCI-H23 = test: Growth inhibition of human NCI-H23 cells assessed as cell growth at 1 uM incubated for 48 hrs by sulforhodamine B assay relative to control; details: NCI-H23, 48 h, read-out: Activity
SR = test: Growth inhibition of human SR cells assessed as cell growth at 10 uM incubated for 48 hrs by sulforhodamine B assay relative to control; details: read-out: Activity
U-251 = test: Growth inhibition of human U251 cells assessed as cell growth at 100 uM incubated for 48 hrs by sulforhodamine B assay relative to control; details: U-251, 48 h, read-out: Activity
MDA-MB-435 = test: Growth inhibition of human MDA-MB-435 cells assessed as cell growth at 0.01 uM incubated for 48 hrs by sulforhodamine B assay relative to control; details: MDA-MB-435, 48 h, read-out: Activity
DU-145 [1] = test: Growth inhibition of human DU145 cells assessed as cell growth at 0.1 uM incubated for 48 hrs by sulforhodamine B assay relative to control; details: DU-145, 48 h, read-out: Activity
HOP-62 = test: Growth inhibition of human HOP62 cells assessed as cell growth at 100 uM incubated for 48 hrs by sulforhodamine B assay relative to control; details: HOP-62, 48 h, read-out: Activity
SF-539 = test: Growth inhibition of human SF539 cells assessed as cell growth at 0.1 uM incubated for 48 hrs by sulforhodamine B assay relative to control; details: SF-539, 48 h, read-out: Activity
SK-MEL-28 [2] = test: Growth inhibition of human SK-MEL-28 cells assessed as cell growth at 100 uM incubated for 48 hrs by sulforhodamine B assay relative to control; details: SK-MEL-28, 48 h, read-out: Activity
UACC-257 = test: Growth inhibition of human UACC257 cells assessed as cell growth at 100 uM incubated for 48 hrs by sulforhodamine B assay relative to control; details: UACC-257, 48 h, read-out: Activity
Malme-3M [3] = test: Growth inhibition of human MALME-3M cells assessed as cell growth at 10 uM incubated for 48 hrs by sulforhodamine B assay relative to control; details: read-out: Activity
NCI-H322M = test: Growth inhibition of human NCI-H322M cells assessed as cell growth at 0.01 uM incubated for 48 hrs by sulforhodamine B assay relative to control; details: read-out: Activity
COLO 205 = test: Growth inhibition of human COLO205 cells assessed as cell growth at 0.1 uM incubated for 48 hrs by sulforhodamine B assay relative to control; details: COLO 205, 48 h, read-out: Activity
ACHN = test: Growth inhibition of human ACHN cells assessed as cell growth at 0.01 uM incubated for 48 hrs by sulforhodamine B assay relative to control; details: read-out: Activity
OVCAR-5 = test: Growth inhibition of human OVCAR5 cells assessed as cell growth at 1 uM incubated for 48 hrs by sulforhodamine B assay relative to control; details: OVCAR-5, 48 h, read-out: Activity
SK-MEL-5 = test: Growth inhibition of human SK-MEL-5 cells assessed as cell growth at 1 uM incubated for 48 hrs by sulforhodamine B assay relative to control; details: SK-MEL-5, 48 h, read-out: Activity
M14 = test: Growth inhibition of human M14 cells assessed as cell growth at 100 uM incubated for 48 hrs by sulforhodamine B assay relative to control; details: M14, 48 h, read-out: Activity
EKVX = test: Growth inhibition of human EKVX cells assessed as cell growth at 1 uM incubated for 48 hrs by sulforhodamine B assay relative to control; details: read-out: Activity
OVCAR-4 = test: Growth inhibition of human OVCAR4 cells assessed as cell growth at 1 uM incubated for 48 hrs by sulforhodamine B assay relative to control; details: OVCAR-4, 48 h, read-out: Activity
OVCAR-8 = test: Growth inhibition of human OVCAR8 cells assessed as cell growth at 0.01 uM incubated for 48 hrs by sulforhodamine B assay relative to control; details: OVCAR-8, 48 h, read-out: Activity
DU-145 [4] = test: Growth inhibition of human DU145 cells assessed as cell growth at 1 uM incubated for 48 hrs by sulforhodamine B assay relative to control; details: DU-145, 48 h, read-out: Activity
SNB-19 = test: Growth inhibition of human SNB19 cells assessed as cell growth at 0.01 uM incubated for 48 hrs by sulforhodamine B assay relative to control; details: SNB-19, 48 h, read-out: Activity
MCF7 = test: Growth inhibition of human MCF7 cells assessed as cell growth at 0.3 uM incubated for 48 hrs by sulforhodamine B assay relative to control; details: MCF7, 48 h, read-out: Activity
HCT-15 = test: Growth inhibition of human HCT15 cells assessed as cell growth at 0.03 uM incubated for 48 hrs by sulforhodamine B assay relative to control; details: HCT-15, 48 h, read-out: Activity
UO-31 [5] = test: Growth inhibition of human UO31 cells assessed as cell growth at 30 uM incubated for 48 hrs by sulforhodamine B assay relative to control; details: UO-31, 48 h, read-out: Activity
SF-295 = test: Growth inhibition of human SF295 cells assessed as cell growth at 30 uM incubated for 48 hrs by sulforhodamine B assay relative to control; details: SF-295, 48 h, read-out: Activity
OVCAR-3 [6] = test: Growth inhibition of human OVCAR3 cells assessed as cell growth at 0.3 uM incubated for 48 hrs by sulforhodamine B assay relative to control; details: OVCAR-3, 48 h, read-out: Activity
SF-268 = test: Growth inhibition of human SF268 cells assessed as cell growth at 0.003 uM incubated for 48 hrs by sulforhodamine B assay relative to control; details: SF-268, 48 h, read-out: Activity
UO-31 [7] = test: Growth inhibition of human UO31 cells assessed as cell growth at 0.03 uM incubated for 48 hrs by sulforhodamine B assay relative to control; details: UO-31, 48 h, read-out: Activity
HL-60(TB) = test: Growth inhibition of human HL-60(TB) cells assessed as cell growth at 30 uM incubated for 48 hrs by sulforhodamine B assay relative to control; details: HL-60, 48 h, read-out: Activity
CCRF-CEM = test: Growth inhibition of human CCRF-CEM cells assessed as cell growth at 0.03 uM incubated for 48 hrs by sulforhodamine B assay relative to control; details: read-out: Activity
OVCAR-3 [8] = test: Growth inhibition of human OVCAR3 cells assessed as cell growth at 0.03 uM incubated for 48 hrs by sulforhodamine B assay relative to control; details: OVCAR-3, 48 h, read-out: Activity
Malme-3M [9] = test: Growth inhibition of human MALME-3M cells assessed as cell growth at 30 uM incubated for 48 hrs by sulforhodamine B assay relative to control; details: read-out: Activity
SK-MEL-28 [10] = test: Growth inhibition of human SK-MEL-28 cells assessed as cell growth at 0.003 uM incubated for 48 hrs by sulforhodamine B assay relative to control; details: SK-MEL-28, 48 h, read-out: Activity
SK-OV-3 = test: Growth inhibition of human SKOV3 cells assessed as cell growth at 3 uM incubated for 48 hrs by sulforhodamine B assay relative to control; details: SK-OV-3, 48 h, read-out: Activity

Compound | growth at 1 µM (NCI-H23) [%] | growth at 10 µM (SR) [%] | growth at 100 µM (U-251) [%] | growth at 0.01 µM (MDA-MB-435) [%] | growth at 0.1 µM (DU-145 [1]) [%] | growth at 100 µM (HOP-62) [%] | growth at 0.1 µM (SF-539) [%] | growth at 100 µM (SK-MEL-28 [2]) [%] | growth at 100 µM (UACC-257) [%] | growth at 10 µM (Malme-3M [3]) [%] | growth at 0.01 µM (NCI-H322M) [%] | growth at 0.1 µM (COLO 205) [%] | growth at 0.01 µM (ACHN) [%] | growth at 1 µM (OVCAR-5) [%] | growth at 1 µM (SK-MEL-5) [%] | growth at 100 µM (M14) [%] | growth at 1 µM (EKVX) [%] | growth at 1 µM (OVCAR-4) [%] | growth at 0.01 µM (OVCAR-8) [%] | growth at 1 µM (DU-145 [4]) [%] | other results
COc1cc2cc(Oc3ccc(NC(=O)Nc4ccc(Cl)c(Cl)c4)cc3)c(C)nc2cc1OC | 89 | 1 | -100 | 94 | 110 | -100 | 103 | -77 | -92 | -14 | 100 | 107 | 101 | 116 | 91 | -94 | 81 | 93 | 101 | 102 | growth at 0.01 µM (SNB-19): 94%
COc1cc2cc(Oc3ccc(NC(=O)Nc4cc(C(F)(F)F)cc(C(F)(F)F)c4)cc3)c(C)nc2cc1OC | 39 | -20 | -83 | 94 | 100 | -92 | 94 | -73 | -78 | -46 | 94 | 100 | 94 | 93 | 84 | -66 | 50 | 58 | 111 | 82 | growth at 0.01 µM (SNB-19): 95%
COc1cc2cc(Oc3ccc(NC(=O)Nc4ccc(Cl)c(C(F)(F)F)c4)cc3)c(C)nc2cc1OC | – | – | – | – | – | – | – | – | – | – | – | – | – | – | – | – | – | – | – | – | growth at 0.3 µM (MCF7): 97%; growth at 0.03 µM (HCT-15): 93%; growth at 30 µM (UO-31 [5]): -71%; growth at 30 µM (SF-295): -59%; growth at 0.3 µM (OVCAR-3 [6]): 95%; growth at 0.003 µM (SF-268): 95%; growth at 0.03 µM (UO-31 [7]): 89%; growth at 30 µM (HL-60(TB)): -22%; growth at 0.03 µM (CCRF-CEM): 103%; growth at 0.03 µM (OVCAR-3 [8]): 91%; growth at 30 µM (Malme-3M [9]): -37%; growth at 0.003 µM (SK-MEL-28 [10]): 99%; growth at 3 µM (SK-OV-3): 17%
Cc1nc2cc(O)c(O)cc2cc1Oc1ccc(NC(=O)Nc2ccc(Cl)c(Cl)c2)cc1 | – | – | – | – | – | – | – | – | – | – | – | – | – | – | – | – | – | – | – | – | growth at 0.3 µM (MCF7): 86%; growth at 0.03 µM (HCT-15): 98%; growth at 30 µM (UO-31 [5]): -51%; growth at 30 µM (SF-295): 9%; growth at 0.3 µM (OVCAR-3 [6]): 109%; growth at 0.003 µM (SF-268): 100%; growth at 0.03 µM (UO-31 [7]): 98%; growth at 30 µM (HL-60(TB)): -20%; growth at 0.03 µM (CCRF-CEM): 95%; growth at 0.03 µM (OVCAR-3 [8]): 107%; growth at 30 µM (Malme-3M [9]): -10%; growth at 0.003 µM (SK-MEL-28 [10]): 90%; growth at 3 µM (SK-OV-3): 103%
